Experimental data as given in US20150238579A1, “METHODS FOR ASSEMBLING A PRODUCT FOR MODULATING AN IMMUNOMODULATORY RESPONSE IN HUMANS” (INVESTFOOD, LLC, priority 2014, published 2015).

Tests used:
[1] = test system: human acute monocytic leukemia cell line THP-1; test: IL-1β production in LPS/PMA-activated THP-1 cells (ELISA); type: cell-based; details: THP-1, 24 h pre-incubation with 0.1 to 25 μM PTSO, then 1 μg/ml LPS and 1 μM PMA, FIG. 3
Experimental: (§1) The effects of different concentrations of PTSO on cytokine production (IL-1β and IL-6) in the human acute monocytic leukemia cell line THP-1 activated by lipopolysaccharide (LPS) and phorbol 12-myristate 13-acetate (PMA) were evaluated. Of note, IL-1β and IL-6 cytokines have been reported to play a key role in the activated immune response that takes place in different inflammatory and/or immune conditions.
The human acute monocytic leukemia cell line THP-1 was obtained from the Cell Culture Unit of the University of Granada (Granada, Spain) (ECACC reference number: 88081201). These cells were cultured in Roswell Park Memorial Institute (RPMI) 1640 medium (Sigma, St Louis, Mo., USA) supplemented with 10% fetal bovine serum (Sigma), 2 mM glutamine and 0.05 mM mercaptoethanol in a humidified 5% carbon dioxide (CO2) atmosphere at 37° C. The cultured cells were seeded onto 24-well plates at a density of 5×10^5 cells/ml and pre-incubated for twenty four (24) hours with the different concentrations of the test compound (ranging from 0.1 to 25 μM of PTSO), and then stimulated with 1 μg/ml LPS and 1 μM phorbol 12-myristate 13-acetate (PMA). […]

[2] = test system: human acute monocytic leukemia cell line THP-1; test: IL-6 production in LPS/PMA-activated THP-1 cells (ELISA); type: cell-based
Experimental: as §1
The human acute monocytic leukemia cell line THP-1 was obtained from the Cell Culture Unit of the University of Granada (Granada, Spain) (ECACC reference number: 88081201). These cells were cultured in Roswell Park Memorial Institute (RPMI) 1640 medium (Sigma, St Louis, Mo., USA) supplemented with 10% fetal bovine serum (Sigma), 2 mM glutamine and 0.05 mM mercaptoethanol in a humidified 5% carbon dioxide (CO2) atmosphere at 37° C. The cultured cells were seeded onto 24-well plates at a density of 5×10^5 cells/ml and pre-incubated for twenty four (24) hours with the different concentrations of the test compound (ranging from 0.1 to 25 μM of PTSO), and then stimulated with 1 μg/ml LPS and 1 μM phorbol 12-myristate 13-acetate (PMA). After twenty-four hours, the supernatants were collected and centrifuged at 1,000 g for 10 min, and then stored at −80° C. for the determination of IL-1β and IL-6 levels by an enzyme-linked immunosorbent assay (ELISA) (GE Healthcare, Little Chalfont, UK).

[3] = test system: human epithelial colorectal adenocarcinoma cells (CACO-2); test: IL-8 production in IL-1β-activated CACO-2 cells (ELISA); type: cell-based; details: Caco-2, 24 h pre-incubation with 0.1 to 25 μM PTSO, then 1 ng/ml IL-1β, FIG. 5
Experimental: The effects of different concentrations of PTSO on cytokine production (IL-8) in the epithelial cell line human epithelial colorectal adenocarcinoma cells (CACO-2) activated by IL-1β were evaluated. IL-8 acts as a neutrophil attractant, which participates in the neutrophil infiltration that occurs in mucosal sites affected by an inflammatory process.
The human colonic adenocarcinoma cell line CACO-2 was obtained from the Cell Culture Unit of the University of Granada (Granada, Spain) (ECACC reference number: 86010202). Cells from the human colonic adenocarcinoma cell line CACO-2 were cultured in RPMI 1640 (Sigma) supplemented with 10% fetal bovine serum (Sigma), 2 mM glutamine and 0.05 mM mercaptoethanol in a humidified 5% CO2 atmosphere at 37° C. The cultured cells were seeded onto 24-well plates until confluence and pre-incubated for twenty-four hours (24 hr) with the different concentrations of the test compound (ranging from 0.1 to 25 μM of PTSO), and then stimulated with 1 ng/ml IL-1β. […] The effects of the different concentrations of PTSO on cell viability were assessed by using the methylthiazol terazolium (MTT) assay (Promega), following the same protocol of incubation of the test compound similar to that described above.

[4] = test system: human T cell line JURKAT E6.1; test: IFN-γ production in ionomycin/PMA-stimulated JURKAT E6.1 cells (ELISA); type: cell-based; details: JURKAT E6.1, 2 and 24 h pre-incubation with 0.1 to 25 μM PTSO, then 40 nM ionomycin and 0.5 μM PMA, FIG. 6
Experimental: The human T cell line JURKAT E6.1 was obtained from the Cell Culture Unit of the University of Granada (Granada, Spain) (ECACC reference number: 88042803). Cells from the human T cell line JURKAT E6.1 were cultured in RPMI 1640 (Sigma) supplemented with 10% fetal bovine serum (Sigma), 2 mM glutamine and 0.05 mM mercaptoethanol in a humidified 5% CO2 atmosphere at 37° C. The cultured cells from the human T cell line JURKAT E6.1 were seeded onto 24-well plates at the concentration of 500,000 cells/ml and pre-incubated for 2 and 24 hours with the different concentrations of the test compound (ranging from 0.1 to 25 μM of PTSO), and then stimulated with 40 nM ionomycin and 0.5 μM of PMA. After twenty four hours (24 hours), the supernatants were collected and centrifuged at 1,000 g for 10 min, and stored at −80° C. for the determination of IFN-γ levels by ELISA (GE Healthcare).

THP-1 cells = test: Cell viability (MTT assay), THP-1; type: cell-based, human; details: THP-1, concentrations up to 25 μM
CACO-2 cells = test: Cell viability (MTT assay), CACO-2; type: cell-based, human; details: CACO-2, concentrations up to 25 μM
Experimental: The human colonic adenocarcinoma cell line CACO-2 was obtained from the Cell Culture Unit of the University of Granada (Granada, Spain) (ECACC reference number: 86010202). Cells from the human colonic adenocarcinoma cell line CACO-2 were cultured in RPMI 1640 (Sigma) supplemented with 10% fetal bovine serum (Sigma), 2 mM glutamine and 0.05 mM mercaptoethanol in a humidified 5% CO2 atmosphere at 37° C. The cultured cells were seeded onto 24-well plates until confluence and pre-incubated for twenty-four hours (24 hr) with the different concentrations of the test compound (ranging from 0.1 to 25 μM of PTSO), and then stimulated with 1 ng/ml IL-1β. After twenty four hours (24 hr), the supernatants were collected and centrifuged at 1,000 g for 10 min, and stored at −80° C. for the determination of IL-8 levels by ELISA (GE Healthcare). The effects of the different concentrations of PTSO on cell viability were assessed by using the methylthiazol terazolium (MTT) assay (Promega), following the same protocol of incubation of the test compound similar to that described above.

Jurkat cells = test: Cell viability (MTT assay), Jurkat; type: cell-based, human; details: concentrations up to 25 μM

CCCSS(=O)(=O)CCC [PTSO, 1-propylsulfonylsulfanylpropane]
production of IL-1β [1]: reduce the production of IL-1β in a dose-dependent manner | production of IL-6 ([2]; THP-1, 24 h pre-incubation with 0.1 to 25 μM PTSO, then 1 μg/ml LPS and 1 μM PMA, 24 h, FIG. 4): can modulate the production of IL-6 | production of IL-6 at 0.1 µM ([2]; THP-1 cells, at 0.1 µM): can increase the production of IL-6 | production of IL-6 at more than 1 mM ([2]; THP-1 cells, starting from more than 1 mM dose): a clear immunosuppressive effect is observed | production of IL-8 cytokine [3]: demonstrated immunomodulatory activity on the production of IL-8 cytokine | production of interferon gamma (IFN-γ) [4]: modulating immune function on the production of interferon gamma (IFN-γ) | cell viability (THP-1 cells): did not significantly affect the viability | cell viability (CACO-2 cells): did not significantly affect the viability | cell viability (Jurkat cells): did not significantly affect the viability
